Reference: patent US20230390319A1, “INTERFERON GENE STIMULATOR COMPOSITION COMPRISING INDOLIZINE DERIVATIVE AS ACTIVE INGREDIENT” (AJOU UNIVERSITY INDUSTRY-ACADEMIC COOPERATION FOUNDATION, priority 2020, published 2023)
Where two headings read alike, the source gives them in different places.

How the values were obtained:
human IFN-β and IP-10 = experiment: ELISA of cytokine levels in THP-1 cell supernatants; format: cell-based; conditions: FIG. 3
Procedure: Cytokine levels were determined by ELISA analysis. THP-1 cells were placed in a 96-well U bottom plate and tested after 24 hours of treatment with each compound and cGAMP (1 μg/ml). After culturing, cell supernatants were collected and human IFN-β and IP-10 levels were determined by ELISA analysis.

[1] = PK profiles after IV and PO administration to BALB/c mice; format: in vivo; conditions: BALB/c, mouse, blood; for concentration at 0.5 h: 0.50 h; for AUC(0-t): read-out: AUClast AUC(0-t); for C0: read-out: C0; for Cmax: read-out: Cmax; for MRT inf: read-out: MRTINF_obs MRT(0-∞); for MRT last: read-out: MRTlast MRT(0-t)
Text: The pharmacokinetics and oral bioavailability of Compound 42 were investigated in mice following single intravenous (IV) injection and oral administration (PO).

[2] = iv, 5 mg/kg, IV 5 mg/kg, individual animals 101-103, read-out: concentration in blood
[3] = iv, 5 mg/kg, IV 5 mg/kg, mean, read-out: concentration in blood, Mean IV
[4] = iv, 5 mg/kg, IV 5.0 mg/kg, individual animals
[5] = iv, 5 mg/kg, IV 5.0 mg/kg, mean n=3
[6] = po, 20 mg/kg, PO 20 mg/kg, individual animals 201-203, read-out: concentration in blood
[7] = po, 20 mg/kg, PO 20 mg/kg, mean, read-out: concentration in blood, Mean PO

bioavailability ([1]; 20 mg/kg, PO administration of 20 mpk): ~18%
concentration at 0.083 h [1, 2]: 2590 ng/mL
concentration at 0.083 h [1, 3]: 2750 ng/mL
concentration at 0.25 h [1, 2]: 1520 ng/mL
concentration at 0.25 h [1, 3]: 1420 ng/mL
concentration at 0.5 h [1, 2]: 803 ng/mL
concentration at 0.5 h [1, 3]: 820 ng/mL
concentration at 1 h [1, 2]: 379 ng/mL
concentration at 1 h [1, 3]: 350 ng/mL
concentration at 4 h [1, 2]: 97.9 ng/mL
concentration at 4 h [1, 3]: 107 ng/mL
concentration at 24 h [1, 2]: 29.2 ng/mL
concentration at 24 h [1, 3]: 34.9 ng/mL
AUC(0-inf) ([1]; iv, 5 mg/kg, IV 5.0 mg/kg, individual animals, read-out: AUCINF_obs AUC(0-∞)): 3420 ng·h/mL
AUC(0-t) [1, 4]: 3160 ng·h/mL
C0 [1, 4]: 3380 ng/mL
clearance ([1]; iv, 5 mg/kg, IV 5.0 mg/kg, individual animals, read-out: Cl_obs Cl (converted)): 24.4 mL/min/kg
Cmax [1, 4]: 2590 ng/mL
half-life ([1]; iv, 5 mg/kg, IV 5.0 mg/kg, individual animals, read-out: HL_Lambda_z T1/2 (converted)): 6.03 h
MRT inf [1, 4]: 6.07 h
MRT last [1, 4]: 3.93 h
Vd ([1]; iv, 5 mg/kg, IV 5.0 mg/kg, individual animals, read-out: Vss_obs Vss): 8.88 L/kg
Vd ([1]; iv, 5 mg/kg, IV 5.0 mg/kg, individual animals, read-out: Vz_obs Vz): 12.7 L/kg
AUC(0-inf) ([1]; iv, 5 mg/kg, IV 5.0 mg/kg, mean n=3, read-out: AUCINF_obs AUC(0-∞)): 3700 ng·h/mL
AUC(0-t) [1, 5]: 3300 ng·h/mL
C0 [1, 5]: 3830 ng/mL
clearance ([1]; iv, 5 mg/kg, IV 5.0 mg/kg, mean n=3, read-out: Cl_obs Cl (converted)): 22.7 mL/min/kg
Cmax [1, 5]: 2750 ng/mL
half-life ([1]; iv, 5 mg/kg, IV 5.0 mg/kg, mean n=3, read-out: HL_Lambda_z T1/2 (converted)): 7.76 h
MRT inf [1, 5]: 7.6 h
MRT last [1, 5]: 4.27 h
Vd ([1]; iv, 5 mg/kg, IV 5.0 mg/kg, mean n=3, read-out: Vss_obs Vss): 10.2 L/kg
Vd ([1]; iv, 5 mg/kg, IV 5.0 mg/kg, mean n=3, read-out: Vz_obs Vz): 15 L/kg
AUC(0-inf) ([1]; iv, 5 mg/kg, IV administration of 5 mg/kg (mpk), read-out: AUC∞): 3700 ng·h/mL
Cmax ([1]; iv, 5 mg/kg, IV administration of 5 mg/kg (mpk)): 2750 ng/mL
half-life ([1]; iv, 5 mg/kg, IV administration of 5 mg/kg (mpk), read-out: half-life (converted)): ~7.76 h
clearance ([1]; iv, 5 mg/kg, IV administration, read-out: mean blood clearance): 22.7 mL/min/kg
Vd ([1]; iv, 5 mg/kg, IV administration, read-out: mean volume of distribution at steady state (Vss)): 10.2 L/kg
concentration at 0.25 h [1, 6]: 75.3 ng/mL
concentration at 0.25 h [1, 7]: 89.9 ng/mL
concentration at 0.5 h [1, 6]: 139 ng/mL
concentration at 0.5 h [1, 7]: 156 ng/mL
concentration at 1 h [1, 6]: 211 ng/mL
concentration at 1 h [1, 7]: 225 ng/mL
concentration at 3 h [1, 6]: 149 ng/mL
concentration at 3 h [1, 7]: 161 ng/mL
concentration at 6 h ([1]; po, 20 mg/kg, PO 20 mg/kg, 6.00 h, individual animals 201-203, read-out: concentration in blood): 98.7 ng/mL
SMILES: CC(=O)c1ccc(-c2cc(C(=O)c3ccc(C(F)(F)F)cc3)n3ccccc23)cc1 [Compound 42]
cytokine secretion (IFN-β, IP-10) (human IFN-β and IP-10; co-treatment with cGAMP compared to cGAMP alone, concentration-dependent): increased cytokine secretion very effectively
immune response, compound alone (human IFN-β and IP-10; treatment with Compound 42 alone): induced no immune response
